Reference: patent US20230399341A1, “7-PHENYL SUBSTITUTED 2-AMINOQUINAZOLINE INHIBITORS OF HPK1” (MERCK SHARP & DOHME LLC, priority 2020, published 2023)

These compounds were tested against T1, Human HPK1, catalytic domain (Homo sapiens, UniProt Q92918) (assay: HPK1-SLP76 TR-FRET Assay). Settings: 75 pM HPK1, ATP 10 uM, SLP76 10 nM, 30 min pre-incubation, 60 min reaction.
T1 sequence (Q92918 1-346): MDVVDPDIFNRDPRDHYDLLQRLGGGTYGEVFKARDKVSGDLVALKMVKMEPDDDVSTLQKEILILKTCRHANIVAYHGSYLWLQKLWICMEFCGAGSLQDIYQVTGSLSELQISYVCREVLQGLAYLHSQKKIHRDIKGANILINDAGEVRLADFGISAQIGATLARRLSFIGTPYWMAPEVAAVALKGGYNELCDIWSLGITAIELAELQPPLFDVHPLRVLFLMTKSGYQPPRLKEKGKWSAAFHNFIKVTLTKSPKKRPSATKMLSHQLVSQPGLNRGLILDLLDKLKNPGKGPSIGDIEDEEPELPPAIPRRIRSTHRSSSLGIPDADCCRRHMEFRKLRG
Assay type: biochemical

Point of comparison: Cc1c(-c2c(F)c(N)c3cnc(Nc4ccc5c(c4)CN(C)CC54CC4)nc3c2Cl)cnc2c1NCCO2 (single isomer, unassigned) [Compound 2-108, (+ or −)-8-chloro-6-fluoro-N2-(2′-methyl-2′,3′-dihydro-1′H-spiro[cyclopropane-1,4′-isoquinolin]-7′-yl)-7-(8-methyl-2,3-dihydro-1H-pyrido[2,3-b][1,4]oxazin-7-yl)quinazoline-2,5-diamine], IC50 0.0134 nM. Against it:
- Cc1c(-c2cc3nc(Nc4ccc5c(c4)CN(C)C(C)C5)ncc3c(N)c2F)cnc2c1NCCO2 (single isomer, unassigned) [Compound 2-86, (R or S)—N2-(2,3-dimethyl-1,2,3,4-tetrahydroisoquinolin-7-yl)-6-fluoro-7-(8-methyl-2,3-dihydro-1H-pyrido[2,3-b][1,4]oxazin-7-yl)quinazoline-2,5-diamine] — 2.9-fold higher, 0.0382 nM
- COc1cc2c(cc1Nc1ncc3c(N)c(F)c(-c4cnc5c(c4C)NCCO5)c(Cl)c3n1)CN(C)CC2 (single isomer, unassigned) [Compound 2-93, (+ or −)-8-chloro-6-fluoro-N~2~-(6-methoxy-2-methyl-1,2,3,4-tetrahydroisoquinolin-7-yl)-7-(8-methyl-2,3-dihydro-1H-pyrido[2,3-b][1,4]oxazin-7-yl)quinazoline-2,5-diamine] — 1.6-fold higher, 0.0213 nM
- COc1cc(CS(C)(=O)=O)ccc1Nc1ncc2c(N)c(F)c(-c3cnc4c(c3C)NCCO4)c(Cl)c2n1 (single isomer, unassigned) [Compound 2-99, (+ or −)-8-chloro-6-fluoro-N~2~-{2-methoxy-4-[(methylsulfonyl)methyl]phenyl}-7-(8-methyl-2,3-dihydro-1H-pyrido[2,3-b][1,4]oxazin-7-yl)quinazoline-2,5-diamine] — 950-fold higher, 12.7 nM
- COc1cc(CS(C)(=O)=O)ccc1Nc1ncc2c(N)c(F)c(-c3cnc4c(c3C)NCCO4)c(Cl)c2n1 (single isomer, unassigned) [Compound 2-101, (+ or −)-8-chloro-6-fluoro-N~2~-{2-methoxy-4-[(methylsulfony])methyl] phenyl}-7-(8-methyl-2,3-dihydro-1H-pyrido[2,3-b][1,4]oxazin-7-yl)quinazoline-2,5-diamine] — 9-fold higher, 0.121 nM
- COc1cc2c(cc1Nc1ncc3c(N)c(F)c(-c4cnc5c(c4C)NCCO5)c(Cl)c3n1)CN(C(C)C)CC2 (single isomer, unassigned) [Compound 2-105, (+ or −)-8-chloro-6-fluoro-N2-(2-isopropyl-6-methoxy-1,2,3,4-tetrahydroisoquinolin-7-yl)-7-(8-methyl-2,3-dihydro-1H-pyrido[2,3-b][1,4]oxazin-7-yl)quinazoline-2,5-diamine] — 5.3-fold higher, 0.0714 nM
- Cc1c(-c2c(F)c(N)c3cnc(Nc4ccc5c(c4)CN(C(C)C)CC5)nc3c2Cl)cnc2c1NCCO2 (single isomer, unassigned) [Compound 2-113, 8-chloro-6-fluoro-N2-(2-isopropyl-1,2,3,4-tetrahydroisoquinolin-7-yl)-7-(8-methyl-2,3-dihydro-1H-pyrido[2,3-b][1,4]oxazin-7-yl)quinazoline-2,5-diamine] — 2.9-fold higher, 0.0389 nM
- CCS(=O)(=O)Cc1ccc(Nc2ncc3c(N)c(F)c(-c4cnc5c(c4C)NCC(C)O5)cc3n2)c(F)c1 (single isomer, unassigned) [Compound 2-125, (R or S)-7-(3,8-dimethyl-2,3-dihydro-1H-pyrido[2,3-b][1,4]oxazin-7-yl)-N2-(4-((ethylsulfonyl)methyl)-2-fluorophenyl)-6-fluoroquinazoline-2,5-diamine] — 7.8-fold higher, 0.105 nM
- Cc1c(-c2cc3nc(Nc4ccc5c(c4)CC(C)(C)N(C)C5)ncc3c(N)c2F)cnc2c1NCCO2 (single isomer, unassigned) [Compound 2-126, 6-fluoro-7-(8-methyl-2,3-dihydro-1H-pyrido[2,3-b][1,4]oxazin-7-yl)-N2-(2,3,3-trimethyl-1,2,3,4-tetrahydroisoquinolin-6-yl)quinazoline-2,5-diamine] — 6.7-fold higher, 0.0898 nM
- Cc1c(-c2cc3nc(Nc4cccc5c4CC(C)(C)N(C)C5)ncc3c(N)c2F)cnc2c1NCCO2 (single isomer, unassigned) [Compound 2-127] — 7500-fold higher, 100 nM
- Cc1c(-c2cc3nc(Nc4ccc5c(c4)CN(C)C(C)(C)C5)ncc3c(N)c2F)cnc2c1NCCO2 (single isomer, unassigned) [Compound 2-128, 6-fluoro-7-(8-methyl-2,3-dihydro-1H-pyrido[2,3-b][1,4]oxazin-7-yl)-N2-(2,3,3-trimethyl-1,2,3,4-tetrahydroisoquinolin-7-yl)quinazoline-2,5-diamine] — 2.5-fold higher, 0.0337 nM
- CCS(=O)(=O)Cc1ccc(Nc2ncc3c(N)c(F)c(-c4cnc5c(c4C)NCC(C)O5)cc3n2)c(F)c1 (single isomer, unassigned) [Compound 2-129, (R or S)-7-(3,8-dimethyl-2,3-dihydro-1H-pyrido[2,3-b][1,4]oxazin-7-yl)-N2-(4-((ethylsulfonyl)methyl)-2-fluorophenyl)-6-fluoroquinazoline-2,5-diamine] — 34-fold higher, 0.454 nM
- Cc1c(-c2c(F)c(N)c3cnc(Nc4ccc(CS(C)(=O)=O)cc4F)nc3c2Cl)cnc2c1NCCO2 (single isomer, unassigned) [Compound 2-131, 8-chloro-6-fluoro-N2-(2-fluoro-4-((methylsulfonyl)methyl)phenyl)-7-(8-methyl-2,3-dihydro-1H-pyrido[2,3-b][1,4]oxazin-7-yl)quinazoline-2,5-diamine] — 9.4-fold higher, 0.126 nM
- Cc1c(-c2cc3nc(Nc4ccc5c(c4)CN(C)CC5)ncc3c(N)c2F)cnc2c1NCC(C)O2 (single isomer, unassigned) [Compound 2-141, (R or S)-7-(3,8-dimethyl-2,3-dihydro-1H-pyrido[2,3-b][1,4]oxazin-7-yl)-6-fluoro-N2-(2-methyl-1,2,3,4-tetrahydroisoquinolin-7-yl)quinazoline-2,5-diamine] — 3.8-fold higher, 0.0505 nM
- Cc1c(-c2cc3nc(Nc4ccc5c(c4)CN(C(C)C)CC5)ncc3c(N)c2F)cnc2c1NCC(C)O2 (single isomer, unassigned) [Compound 2-145, 7-(3,8-dimethyl-2,3-dihydro-1H-pyrido[2,3-b][1,4]oxazin-7-yl)-6-fluoro-N2-(2-isopropyl-1,2,3,4-tetrahydroisoquinolin-7-yl)quinazoline-2,5-diamine] — 3.8-fold higher, 0.051 nM
- Cc1c(-c2cc3nc(Nc4ccc(C5CCN(C)C5=O)cc4)ncc3c(N)c2F)cnc2c1NCCO2 (single isomer, unassigned) [Compound 2-146, (R or S)-3-(4-{[5-amino-6-fluoro-7-(8-methyl-2,3-dihydro-1H-pyrido[2,3-b][1,4]oxazin-7-yl)quinazolin-2-ylamino}phenyl)-1-methylpyrrolidin-2-one] — 3.8-fold higher, 0.0505 nM
- Cc1c(-c2cc3nc(Nc4ccc(C5CCN(C)C5=O)cc4)ncc3c(N)c2F)cnc2c1NCCO2 (single isomer, unassigned) [Compound 2-147, (R or S)-3-(4-{[5-amino-6-fluoro-7-(8-methyl-2,3-dihydro-1H-pyrido[2,3-b][1,4]oxazin-7-yl)quinazolin-2-yl]amino}phenyl)-1-methylpyrrolidin-2-one] — 5.6-fold higher, 0.0753 nM
- Cc1c(-c2c(F)c(N)c3cnc(Nc4ccc(N5CCOC5=O)cc4)nc3c2Cl)cnc2c1NCCO2 (single isomer, unassigned) [Compound 2-156] — 18-fold higher, 0.235 nM
